In article PMC11091526 (International Journal for Parasitology: Drugs and Drug …, 2024):

Key:
[1] = system: N. fowleri ATCC® 30,808™ trophozoites; assay: In vitro activity against trophozoites, alamarBlue, 48 h; type: cell-based, Naegleria fowleri; conditions: for S.I. ATCC 30,808 (selectivity index CC50/IC50): CC50 J774A.1 / IC50 ATCC 30,808 trophozoites; for IC50 / IC90: Naegleria fowleri; for IC50: ATCC30, 48 h, read-out: N. fowleri ATCC 30,808 IC50, trophozoite stage; for IC90: ATCC30, read-out: N. fowleri ATCC 30,808 IC90
[2] = system: N. fowleri (ATCC® 30,808™) trophozoites; type: cell-based, Naegleria fowleri; conditions: trophozoites treated with IC90 for 24 h
[3] = system: N. fowleri (ATCC® 30,808™) trophozoites; assay: Plasma membrane permeability, SYTOX Green; type: cell-based, Naegleria fowleri; conditions: IC90, 24 h
[4] = system: N. fowleri ATCC® 30,215™ trophozoites; assay: In vitro activity against trophozoites, alamarBlue, 48 h; type: cell-based; conditions: Naegleria fowleri, ATCC30, 48 h, read-out: N. fowleri ATCC 30,215 IC50
[5] = system: N. fowleri (ATCC® 30,808™) trophozoites; assay: Chromatin condensation, Hoechst 33,342/Propidium Iodide double staining; type: cell-based, Naegleria fowleri; conditions: IC90, 24 h
[6] = system: N. fowleri (ATCC® 30,808™) trophozoites; assay: Mitochondrial membrane potential depolarization, JC-1; type: cell-based, Naegleria fowleri; conditions: IC90, 24 h
[7] = system: N. fowleri ATCC® 30,808™ cysts; assay: microbe, parasite or virus in culture; type: cell-based; conditions: Naegleria fowleri, ATCC30, read-out: N. fowleri ATCC 30,808 IC50, cyst stage

SMILES | S.I. ATCC 30,808 (selectivity index CC50/IC50) [1] | IC50 [1] | IC90 [1] | Inhibition of ATP synthesis in comparison to the negative control [2] | Plasma membrane permeability (SYTOX Green fluorescence) [3] | IC50 [4] | Chromatin condensation (Hoechst 33,342 blue fluorescence) [5] | Mitochondrial membrane potential (JC-1 fluorescence) [6] | IC50 [7]
C[C@@H]1[C@H](O)[C@@H](C)/C=C/C=C/C=C/C=C/C=C/C=C/C=C/[C@H](O[C@@H]2O[C@H](C)[C@@H](O)[C@H](N)[C@@H]2O)C[C@@H]2O[C@](O)(C[C@@H](O)C[C@@H](O)[C@H](O)CC[C@@H](O)C[C@@H](O)CC(=O)O[C@H]1C)C[C@H](O)[C@H]2C(=O)O [AMPHOTERICIN B, amphotericin B] | ≥1650 | 0.12 ± 0.03 µM | 0.35 ± 0.02 µM | > 98% | emitted green fluorescence | 0.16 ± 0.02 µM | emission of blue fluorescence was observed | green fluorescence emission was also shown | 0.53 ± 0.03 µM
CCCN1CCC=C(c2cc(-c3ccc(C)cc3)no2)C1 [PD-144418] | 10.35 | 4.71 ± 0.95 µM | 17.4 ± 3.28 µM | – | – | 6.48 ± 2.83 µM | – | – | 10.4 ± 2.3 µM
CCCCCCCCCCCCCCCCOP(=O)([O-])OCC[N+](C)(C)C [MILTEFOSINE, miltefosine] | 3.3 | – | – | – | – | – | – | – | 21.5 ± 2.62 µM
CC(C)N1CCN(c2ccc(OCC3COC(Cn4cncn4)(c4ccc(Cl)cc4Cl)O3)cc2)CC1 (stereo not drawn) [TERCONAZOLE, terconazole] | 22.99 | 3.68 ± 0.61 µM | 30.9 ± 2.38 µM | – | – | 0.81 ± 0.49 µM | – | – | 2.46 ± 0.28 µM
